This is an account of results in PMC12731232, “Microbial Biotransformation of the Sesquiterpene Carotol: Generation of Hydroxylated Metabolites with Potential Cytotoxic and Target-Specific Binding Activities” (Biomolecules, 2025).

One data set can be described thus: in vitro. The settings on record: human.
The test system of the next data set is MCF-7 (breast carcinoma). Briefly: MTT cell viability assay, MCF-7. The settings on record: for IC50: Homo sapiens, MCF7, 24 h, read-out: Cytotoxic activity IC50 ± SD; for Selectivity index (SI): SI = CC50(MRC-5)/IC50(MCF-7).
A further data set concerns A-549 (lung carcinoma). Kind of data set: MTT cell viability assay, A-549. The following applies: for IC50: Homo sapiens, A549, 24 h, read-out: Cytotoxic activity IC50 ± SD; for Selectivity index (SI): SI = CC50(MRC-5)/IC50(A-549).
Data set [1] deals with HepG-2 (hepatocellular carcinoma). Kind of data set: MTT cell viability assay, HepG-2. The settings on record: for IC50: Homo sapiens, HepG2, 24 h, read-out: Cytotoxic activity IC50 ± SD; for Selectivity index (SI): SI = CC50(MRC-5)/IC50(HepG-2).
Experimental: (§1) The assay was conducted at the Regional Center for Mycology and Biotechnology, Al-Azhar University, Cairo, Egypt.
(§2) Cancer and normal cells were seeded into 96-well plates at a density of 5 × 10^4 cells per well and incubated for 24 h prior to treatment. Test compounds, dissolved in 0.5% DMSO, were added in triplicate at twelve different concentrations. Vehicle controls (media only or media containing 0.5% DMSO) were included. After a 24 h incubation period, cell viability was assessed via the MTT assay.
(§3) Briefly, the media were replaced with 100 µL of fresh RPMI-1640 medium, followed by the addition of 10 µL of a 12 mM MTT stock solution (5 mg/mL in PBS) to each well, including untreated controls. Plates were incubated at 37 °C in a 5% CO2 atmosphere for 4 h. Subsequently, 85 µL of medium was removed from each well, and 50 µL of DMSO was added to dissolve the resulting formazan crystals. The plates were thoroughly mixed and incubated for an additional 10 min at 37 °C. Absorbance was measured at 590 nm using a microplate reader (SunRise, TECAN Inc., Morrisville, NC, USA). Cell viability percentages were calculated, and IC50 values (µM) were determined from dose–response curves using GraphPad Prism 10 software (San Diego, CA, USA) [38].
Data set [2] deals with HCT-116 (colon carcinoma). Briefly: MTT cell viability assay, HCT-116. The following applies: for IC50: Homo sapiens, HCT-116, 24 h, read-out: Cytotoxic activity IC50 ± SD; for Selectivity index (SI): SI = CC50(MRC-5)/IC50(HCT-116).
Experimental: as §1, §2, §3
The nature of data set [3]: Substrate control stability in sterile fermentation medium. The settings on record: without microorganisms. The data set is classed as physicochemical. The method, then: Control groups included a substrate control, in which sterile medium containing carotol (5 mg/100 µL DMF) was incubated without microorganisms. […] Culture controls consisted of microorganisms grown under identical conditions to the screening cultures but without carotol. After two weeks of incubation, all cultures were harvested and analyzed by thin-layer chromatography.

Data set [4] relates to green monkey kidney epithelial cells (VERO). On the set-up: method as in doi:10.1016/j.indcrop.2016.08.001. The following applies: cited from earlier work.
Data set [5] has as its system human hypopharyngeal squamous cell carcinoma cells (FaDu). Details: method as in doi:10.1016/j.indcrop.2016.08.001. The following applies: cited from earlier work.
Data set [6] can be described thus: MTT cell viability assay, MRC-5. The following applies: human, MRC-5 normal lung fibroblasts.
Experimental: as §1, §2, §3

Each structure is given as a SMILES string. Converted amounts (≈) assume the structure as drawn.

The term IC50 denotes the concentration at which inhibition is half-maximal.

Experimental for A-549 (lung carcinoma): as §1, §2, §3
Experimental for MCF-7 (breast carcinoma): as §1, §2, §3
Experimental for in vitro: as §1, §2, §3

Regarding `CC(C)[C@H]1CC[C@]2(C)C[C@H](O)[C@@](C)(O)CC[C@]12O` [CM3], half-maximal inhibition in the data set “in vitro” (IC50 at 24 h) required 316 ± 15.2 µM. Moreover, the half-maximal inhibitory concentration (IC50) in the data set with MCF-7 (breast carcinoma) came out at 242 ± 15.7 µM; with A-549 (lung carcinoma), 205 ± 10.6 µM; in data set [1] it was 196 ± 10.6 µM; in data set [2], 226 ± 11 µM. For the same compound, the “Selectivity index (SI)” value worked out at 1.31 in the data set on MCF-7 (breast carcinoma), 1.54 in the data set with A-549 (lung carcinoma), 1.62 in [1] and 1.40 in data set [2].
As to `CC1=CC[C@@]2(C)CC[C@H](C(C)C)[C@@]2(O)CC1` [Carotol], the “Stability of substrate control” value is “remained fully stable” in data set [3] (5 °C, two weeks) and “slight decomposition” in data set [3] (room temperature (25–30 °C)). Also, the half-maximal inhibitory concentration (IC50) in data set [4] was 39.7 µg/mL (≈ 179 µM); in data set [5], 38.3 µg/mL (≈ 172 µM); in the data set on MCF-7 (breast carcinoma), 68.4 ± 6.04 µM; in the data set with A-549 (lung carcinoma), 28.7 ± 2.75 µM; in [1] it was 52.3 ± 4.23 µM; in data set [2], 25.7 ± 0.53 µM. In the data set “in vitro”, this compound returned an IC50 at 24 h of 176 ± 10.9 µM. Besides, the “Selectivity index (SI)” value stood at 2.57 with MCF-7 (breast carcinoma), 6.14 in the data set on A-549 (lung carcinoma), 3.36 in data set [1] and 6.85 in data set [2].
Regarding `CC(C)C1C(O)CC2(C)CC(O)C3(C)CCC12O3` (stereo not drawn) [CM1, 9α-hydroxydaucol], in “in vitro”, inhibition was half-maximal at 466 ± 20.3 µM (IC50 at 24 h). For the same compound, the IC50 in the data set with MCF-7 (breast carcinoma) was found to be 401 ± 20.3 µM; in the data set on A-549 (lung carcinoma), 225 ± 13.4 µM; in [1] it was 221 ± 12.3 µM; in data set [2], 339 ± 15.6 µM. For the same compound, the “Selectivity index (SI)” value amounted to 1.16 with MCF-7 (breast carcinoma), 2.07 in the data set with A-549 (lung carcinoma), 2.11 in [1] and 1.37 in [2].
In turn, `CC(C)(O)[C@H]1[C@@H](O)C[C@]2(C)C[C@H](O)[C@]3(C)CC[C@]12O3` [CM2, 9α,13-dihydroxydaucol] came in with a 50% inhibitory concentration (IC50) at 24 h in “in vitro” of 248 ± 11.2 µM. Also, the concentration for half-maximal inhibition (IC50) in the data set with MCF-7 (breast carcinoma) was 213 ± 13.7 µM; in the data set with A-549 (lung carcinoma), 138 ± 9.2 µM; in data set [1], 154 ± 9.39 µM; in data set [2] it was 181 ± 9.95 µM. The “Selectivity index (SI)” value with MCF-7 (breast carcinoma) turned out to be 1.16; with A-549 (lung carcinoma), 1.79; in data set [1] it was 1.60; in data set [2], 1.37.
With `COc1cccc2c1C(=O)c1c(O)c3c(c(O)c1C2=O)C[C@@](O)(C(=O)CO)C[C@@H]3O[C@H]1C[C@H](N)[C@H](O)[C@H](C)O1` [Doxorubicin, doxorubicin, reference compound], the concentration for half-maximal inhibition (IC50) with MCF-7 (breast carcinoma) stood at 3.07 ± 0.18 µM; in the data set with A-549 (lung carcinoma) it was 3.31 ± 0.26 µM; in data set [1], 1.27 ± 0.2 µM; in data set [2], 2.99 ± 0.22 µM. The “Selectivity index (SI)” value with MCF-7 (breast carcinoma) came to 14.31; in data set [1] it was 34.62; in data set [2], 14.66. Also, in data set [6], it took 44 ± 3.24 µM to reach half-maximal inhibition (IC50 at 24 h).
